Assay results reported in US20190300573A1, “HUMAN MYOSIN PEPTIDES” (APITOPE INTERNATIONAL NV, priority 2016, published 2019).

Legend:
[1] = tested on: α-myosin sensitized splenic cells; test: Testing the antigenicity of T cell epitopes (stimulation index, 3H-thymidine incorporation); format: cell-based, DR4 mice; settings: for stimulation index: 3H-thymidine incorporation, peptides 30, 3 and 0.3 μg/ml, screening repeated three times, FIG. 8; for stimulation at the lowest concentration: 0.3 μg/ml
Procedure: The antigenicity of predicted peptides was assessed T cell proliferation against human cardiac myosin was measured by comparison of their stimulation index determined by 3H-thymidine incorporation assay (in brief: cells were pulsed with ^3H-Thymidine for 18 hours at the same conditions by adding 25 μl of diluted ^3H-Tymidine solution in RPMI to each well (final concentration 0.5 μCi/well). Finally, the cells were kept at −20 C.° at least overnight until ready to harvest. After thawing the plates, the cells were harvested onto glass fibre filters (Cox Scientific) using a Combo Cell Harvester (Skatron). Then the filters were soaked in Betaplate Scint liquid scintillation cocktail (Perkin Elmer) and sealed into sample bags (Perkin Elmer). Finally, the sealed bags containing the filters were placed into cassettes and the amount of scintillation was read using 1450 Microbeta Liquid Scintillation Counter (Perkin Elmer) in order to determine the level of ^3H-tymidine incorporation.). The α-myosin sensitized splenic cells were challenged with each peptide (GenScript (USA), peptide concentrations were 30, 3 and 0.3 μg/ml) or whole myosin (30 μg/ml).

[2] = tested on: DR4 mice; format: in vivo; settings: first trial, myosin and Pertussis toxin injections repeated after a week; after 3 weeks
Procedure: (§1) Appropriate amount of myosin extract was diluted to the desired volume with PBS, then mixed with equal volume of complete Freund's adjuvant (CFA; Difco) containing 8 mg/ml of heat-killed Mycobacterium Tuberculosis (hkMTB; Difco). The mixture was sonicated for 20 min, then mixed well by a 1 ml syringe until the emulsion became very thick and viscous. 100 μl of the emulsion was applied subcutaneously from tail base at a dose of 100 μg myosin/mouse. On day 0 and 2, 200 ng Pertussis toxin (Sigma Aldrich) in 0.5 ml of PBS was intraperitoneally injected to each mouse as a second adjuvant. In the first trial, the myosin and Pertussis toxin injections were repeated after a week. […] The development of EAM was assessed by echocardiographic and histopathological measurements after 3 weeks from myosin injection. […]
In our first trial, it was planned to follow disease progression using echocardiography at 3 and 6 weeks. However, sudden death occurred in 3 out of 5 mice in the α-myosin treated group after 3 weeks, whereas the animals in the control group were all healthy and no signs of myocarditis were detected in their hearts by echocardiographic measurements (data not shown). […]
Body weights of the mice were measured before the induction of EAM and at termination. […]

[3] = tested on: EAM induced DR4 mice; test: Histopathological analysis of myocarditis (H&E inflammatory cell infiltrate); format: in vivo; settings: EAM induction, p=0.0079, Fisher's exact test
Procedure: (§2) Appropriate amount of myosin extract was diluted to the desired volume with PBS, then mixed with equal volume of complete Freund's adjuvant (CFA; Difco) containing 8 mg/ml of heat-killed Mycobacterium Tuberculosis (hkMTB; Difco). The mixture was sonicated for 20 min, then mixed well by a 1 ml syringe until the emulsion became very thick and viscous. 100 μl of the emulsion was applied subcutaneously from tail base at a dose of 100 μg myosin/mouse. On day 0 and 2, 200 ng Pertussis toxin (Sigma Aldrich) in 0.5 ml of PBS was intraperitoneally injected to each mouse as a second adjuvant. In the first trial, the myosin and Pertussis toxin injections were repeated after a week. However, this second set of injections was excluded in later experiments to avoid induction of a too severe disease that might obscure any benefit of the peptide therapy. Control groups received PBS in hkMTB-boosted CFA (but without human cardiac myosin) as well as Pertussis toxin. The development of EAM was assessed by echocardiographic and histopathological measurements after 3 weeks from myosin injection. Spleens were collected to measure cardiac myosin responsive T cell proliferation. Bloods were collected to measure circulating anti-myosin antibody levels.
The heart was dissected and fixed for 24 hours in 10% (v/v) formalin in PBS for histological analyses. […]

[4] = tested on: circulating anti-myosin antibodies; test: ELISA of circulating anti-myosin antibody levels in EAM DR4 mice; format: in vivo; settings: EAM induction, n=5
Procedure: as §2, with “Spleens were collected to measure cardiac myosin responsive T cell proliferation. Bloods were collected to measure circulating anti-myosin antibody levels.” left out
After incubation with the alkaline phosphatase-conjugated antibodies, once again the plates were washed four times with PBST. […] Once the colour developed, the reaction was stopped by adding 50 μL of 2M NaOH (Sigma, UK) and the absorbance was measured using LT-5000MS ELISA Reader (Labtech) at a wavelength of 405 nm. […]

[5] = tested on: EAM induced DR4 mice; test: Echocardiographic analysis of left ventricle function in EAM DR4 mice; format: in vivo; settings: n=5
Procedure: as §2
At the end of the 3 week experiment, the mice were anesthetised by intraperitoneal injection of Tribromoethanol (Avertin; SigmaAldrich) at a dose of 250 mg/kg. The left ventricle functions and diameters were analysed using Vevo 770 high-frequency, high-resolution echocardiography system (Visual Sonics) just before terminating the mice. The anesthetised mice were laid supine and butted to a heated platform by surgical tape stripes. Chest hair were removed by applying hair removal cream and Aquasonic Clear ultrasound transmission gel (Parker Laboratories) was applied to the hairless chest. […]
(§3) 2 different combinations of peptides were used for the therapy. […] Mice were terminated 3 weeks after the myosin injection and disease development and adaptive immune responses against cardiac myosin were assessed.

[6] = tested on: cardiac myosin responsive T cell proliferation; test: Anti-myosin T cell proliferation of splenocytes from EAM DR4 mice; format: in vivo; settings: EAM induction, FIG. 3
Procedure: as §1
The splenocytes obtained from myosin immunised mice (as described herein) were cultured in 96 well plates in X-Vivo 15 media (Lonza) at a concentration of 5×10^5 cells/well. […] Finally, the cells were kept at −20 C.° at least overnight until ready to harvest. […]
as §3

PHIFSISDNAYQYML (T cell epitope peptide) [PL]
stimulation index [1]: stronger stimulation than the rest of them | stimulation at the lowest concentration ([1]; second screening assay): provided stimulation even at the lowest concentration

VNPYKWLPVYNAEVV (T cell epitope peptide)
stimulation index [1]: stronger stimulation than the rest of them

Whole myosin: myosin extracted from human heart left ventricular wall; immunogen for EAM induction and stimulus in proliferation assays
sudden death [2]: 3 out of 5 | mice with inflammation and tissue damage in the heart [3]: 5 out of 5 | circulating anti-myosin IgG1 levels ([4]; pmax=0.0008, FIG. 4A): increased significantly | circulating anti-myosin IgG2c levels ([4]; pmax=0.02, FIG. 4B): significantly increased | stimulation ([1]; second screening assay): 2 fold | percentage of ejection fraction ([5]; EAM induction vs control with only CFA and Pertussis toxin, p=0.003): significant decrease | fractional shortening ([5]; EAM induction vs control with only CFA and Pertussis toxin, p=0.006): significant decrease | left ventricle systolic dimension ([5]; EAM induction, p=0.039, FIG. 6B): significant increase | increase in T cell proliferation against cardiac myosin ([6]; 100 μg myosin in CFA + Pertussis toxin, vs control group with CFA and Pertussis toxin only): 5-6 fold | anti-myosin T cell proliferation ([6]; myosin 0.2, 2.0, 20 μg/ml in culture, n=5): increased

YHIFYQILSNKKPEL (T cell epitope peptide) [YL]
stimulation index [1]: consistently the strongest stimulation amongst the peptides | stimulation at the lowest concentration ([1]; second screening assay): provided stimulation even at the lowest concentration
